Measured values as given in US11053234B2 (GlaxoSmithKline Intellectual Property Development Limited, priority 2016, dated 2021).

Target: T1, haematopoietic prostaglandin D synthase (H-PGDS) (Homo sapiens, UniProt O60760)
T1 construct: Full length human H-PGDS cDNA (Invitrogen Ultimate ORF 10H13026) was amplified by PCR; 6-His (N); TEV protease cleavage site (N); made in house; host or cells: E. coli BL21 (DE3*), vector pET22b+
Assay: H-PGDS RapidFire high throughput mass spectrometry assay (conversion of PGH2 to PGD2)
Type: biochemical
Details: 10 nM H-PGDS, PGH2 formed in situ by COX-2 from arachidonic acid; read-out: Potency Range (mean pIC50) (converted)
Procedure: H-PGDS RapidFire™ High Throughput Mass Spectrometry Assay
The H-PGDS RapidFire™ mass spectrometric assay monitors conversion of prostaglandin H2 (PGH2) to prostaglandin D2 (PGD2) by haematopoietic prostaglandin D synthase (H-PGDS). In the assay format described here, the substrate (PGH2) is formed in situ by the action of cyclooxygenase-2 on arachidonic acid. This first step is set up to be fast, and generates a burst of PGH2 at ˜10 μM. The PGH2 is then further converted to PGD2 by the H-PGDS enzyme. […] Plates are then read on the RapidFire™ high throughput solid phase extraction system (Agilent) which incorporates a solid phase extraction step coupled to a triple quadrupole mass spectrometer (AB SCIEX). Relative levels of PGD2 and PGF2α, which acts as a surrogate for substrate, are measured and a percent conversion calculated.
Expression and Purification of H-PGDS Protein
Full length human H-PGDS cDNA (Invitrogen Ultimate ORF 10H13026) was amplified by PCR with the addition of a 5′ 6-His tag and TEV protease cleavage site. The PCR product was digested with Ndel and Xhol and ligated into pET22b+ (Merck Novagen®). Expression was carried out in E. coli strain BL21 (DE3*) using auto-induction Overnight Express™ Instant TB medium (Merck Novagen®) supplemented with 1% glycerol. The culture was first grown at 37° C. and the temperature was reduced to 25° C. when OD600 reached 2.0. Cells were harvested by centrifugation after a further 18 hr. 10 g of E. coli cell pellet was suspended to a total volume of 80 mL in lysis buffer (20 mM Tris-Cl pH 7.5, 300 mM NaCl, 20 mM imidazole, 5 mM β-mercaptoethanol, 10% glycerol). 1 mg/mL protease inhibitors (Protease Inhibitor Cocktail Set III, Merck Calbiochem®) and 1 mg/mL lysozyme were added to the cell suspension. The suspension was then sonicated for 5 min (UltraSonic Processor VCX 750, Cole-Parmer Instrument Co.) with a micro probe (50% amplitude, 10 sec on/off) and then centrifuged at 100,000 g for 90 min (at 4° C.). The supernatant was loaded onto a Ni-NTA HiTrap column (5 mL, GE Healthcare, pre-equilibrated in lysis buffer). The column was washed with 10 column volumes of lysis buffer and eluted with lysis buffer containing 500 mM imidazole. The pooled protein peak fractions were concentrated using a 10 kDa centrifugal filter at 3500 g and 4° C. (Amicon Ultra-15 centrifugal filter unit with Ultracel-10 membrane from Millipore). Further purification of the concentrated protein was carried out using gel filtration chromatography on a HiLoad 26/600 Superdex 75 preparative grade column (GE Healthcare Life Sciences) using 50 mM Tris pH 7.5, 50 mM NaCl, 1 mM dithiothreitol, 1 mM MgCl2. Fractions containing the protein were pooled, concentrated as described above, and stored at −80° C.
Expression and Purification of Cyclooxygenase-2 (COX-2) Protein
The full length human COX-2 gene (accession number L15326) was amplified by PCR to generate an EcoRI-HindIII fragment containing an in-frame FLAG tag. This was subcloned into pFastBac 1 (Invitrogen). The COX2 FLAG plasmid was recombined into the baculovirus genome according to the BAC-to-BAC protocol described by Invitrogen. Transfection into Spodoptera frugiperda (Sf9) insect cells was performed using Cellfectin (Invitrogen), according to the manufacturer's protocol. […] Cells were harvested using a continuous feed centrifuge run at 2500 g at a rate of approximately 2 L/min with cooling. The resultant cell slurry was re-centrifuged in pots (2500 g, 20 min, 4° C.) and the cell paste was stored at −80° C. […] The suspension was sonicated in 500 mL batches for 8×5 seconds at 10 u amplitude with the medium tip of an MSE probe sonicator and subsequently incubated at 4° C. for 90 min with gentle stirring. The lysate was centrifuged at 12000 rpm for 45 min at 4° C. in a Sorvall SLA1500 rotor. The supernatant (1400 mL) was added to 420 mL of 20 mM Tris-Cl pH 7.4, 150 mM NaCl, 0.1 mM EDTA to reduce the concentration of n-octyl-6-D-glucopyranoside to 1% w/v.

T1 sequence (O60760 whole entry): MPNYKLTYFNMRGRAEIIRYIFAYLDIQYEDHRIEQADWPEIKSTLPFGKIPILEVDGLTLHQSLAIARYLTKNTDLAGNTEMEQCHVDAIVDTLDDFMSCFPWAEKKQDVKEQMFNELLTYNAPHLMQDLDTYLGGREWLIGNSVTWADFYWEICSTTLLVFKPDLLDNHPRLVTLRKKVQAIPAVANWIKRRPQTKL

SMILES | IC50
Cc1nnc(NC(=O)[C@H]2C[C@H](Oc3cccc4scnc34)C2)s1 [Example 331, (trans)-3-(Benzo[d]thiazol-4-yloxy)-N-(5-methyl-1,3,4-thiadiazol-2-yl)cyclobutane-1-carboxamide] | 10 to 79.4 nM
Cn1cc(NC(=O)N2CC(Oc3cccc4scnc34)C2)cn1 [Example 324, 3-(Benzo[d]thiazol-4-yloxy)-N-(1-methyl-1H-pyrazol-4-yl)azetidine-1-carboxamide] | 100 to 1000 nM
O=C1NCC[C@@H]1NC(=O)N1CC(Oc2cccc3scnc23)C1 [Example 99, (S)-3-(Benzo[d]thiazol-4-yloxy)-N-(2-oxopyrrolidin-3-yl)azetidine-1-carboxamide] | 100 to 1000 nM
CC(C)(O)C12CC(NC(=O)N3CC(Oc4cccc5scnc45)C3)(C1)C2 [Example 316, 3-(Benzo[d]thiazol-4-yloxy)-N-(3-(2-hydroxypropan-2-yl)bicyclo[1.1.1]pentan-1-yl)azetidine-1-carboxamide] | 100 to 1000 nM
CC(=O)c1csc(NC(=O)[C@H]2C[C@H](Oc3ccccc3OC(F)F)C2)n1 [Example 279] | 10 to 79.4 nM
CC(C)(O)[C@H]1CC[C@H](NC(=O)[C@H]2C[C@H](Oc3cc(F)cc4ccoc34)C2)CC1 [Example 227, (trans)-3-((5-Fluorobenzofuran-7-yl)oxy)-N-((trans)-4-(2-hydroxypropan-2-yl)cyclohexyl)cyclobutanecarboxamide] | 10 to 79.4 nM
CC(C)(O)C1CC2(CC(NC(=O)[C@H]3C[C@H](Oc4cccc5cccnc45)C3)C2)C1 (mixture of isomers) [Example 170, Racemic (trans)-N-(6-(2-Hydroxypropan-2-yl)spiro[3.3]heptan-2-yl)-3-(quinolin-8-yloxy)cyclobutanecarboxamide] | 10 to 79.4 nM
CC(=O)c1cnc(NC(=O)[C@H]2C[C@H](Oc3cccc4cccnc34)C2)o1 [Example 174, (trans)-N-(5-Acetvloxazol-2-yl)-3-(quinolin-8-yloxy)cyclobutanecarboxamide] | 10 to 79.4 nM
Cc1csc(NC(=O)[C@H]2C[C@H](Oc3cccc4cccnc34)C2)n1 [Example 218, (trans)-N-(4-Methylthiazol-2-yl)-3-(quinolin-8-yloxy)cyclobutanecarboxamide] | 10 to 79.4 nM
CCOC(=O)Cc1nnc(NC(=O)[C@H]2C[C@H](Oc3cccc4ccoc34)C2)s1 [Example 263, Ethyl 2-(5-((trans)-3-(benzofuran-7-yloxy)cyclobutanecarboxamido)-1,3,4-thiadiazol-2-yl)acetate] | 10 to 79.4 nM
CCOC(=O)c1coc(NC(=O)[C@H]2C[C@H](Oc3cccc4cccnc34)C2)n1 [Example 171, ethyl 2-((trans)-3-(quinolin-8-yloxy)cyclobutanecarboxamido)oxazole-4-carboxylate] | 10 to 79.4 nM
O=C(NC1CCCCC1)N1CC(Oc2cccc3scnc23)C1 [Example 64, 3-(Benzo[d]thiazol-4-yloxy)-N-cyclohexylazetidine-1-carboxamide] | 100 to 1000 nM
NC(=O)c1ccc(N2CC(NC(=O)[C@H]3C[C@H](Oc4cccc5scnc45)C3)C2)nc1 [Example 36, 6-(3-((trans)-3-(Benzo[d]thiazol-4-yloxy)cyclobutanecarboxamido)azetidin-1-yl)nicotinamide] | 10 to 79.4 nM
COC(=O)C12CCC(NC(=O)N3CC(Oc4cccc5scnc45)C3)(CC1)CC2 [Example 327, Methyl 4-(3-(benzo[d]thiazol-4-yloxy)azetidine-1-carboxamido)bicyclo[2.2.2]octane-1-carboxylate] | 10 to 79.4 nM
CC(=O)c1csc(NC(=O)N2CC(Oc3cccc4scnc34)C2)n1 [Example 62, N-(4-Acetylthiazol-2-yl)-3-(benzo[d]thiazol-4-yloxy)azetidine-1-carboxamide] | 10 to 79.4 nM
CC(C)(O)[C@H]1CC[C@H](NC(=O)[C@H]2C[C@H](Oc3cc(F)ccc3Cl)C2)CC1 [Example 230, (trans)-3-(2-Chloro-5-fluorophenoxy)-N-((trans)-4-(2-hydroxypropan-2-yl)cyclohexyl)cyclobutanecarboxamide] | 100 to 1000 nM
O=C(Nc1nc(C2CC2)ns1)N1CC(Oc2cccc3scnc23)C1 [Example 338, 3-(Benzo[d]thiazol-4-yloxy)-N-(3-cyclopropyl-1,2,4-thiadiazol-5-yl)azetidine-1-carboxamide] | < 10 nM
N#Cc1ccnc(N2CC(NC(=O)N3CC(Oc4cccc5scnc45)C3)C2)c1 [Example 52, 3-(Benzo[d]thiazol-4-yloxy)-N-(1-(4-cyanopyridin-2-yl)azetidin-3-yl)azetidine-1-carboxamide] | 10 to 79.4 nM
CC(C)(O)[C@H]1CC[C@H](NC(=O)N2CC(Oc3cccc4sncc34)C2)CC1 [Example 299, 3-(Benzo[d]isothiazol-4-yloxy)-N-((trans)-4-(2-hydroxypropan-2-yl)cyclohexyl)azetidine-1-carboxamide] | 100 to 1000 nM
O=C(NC1CN(c2ncccn2)C1)N1CC(Oc2cccc3scnc23)C1 [Example 107, 3-(Benzo[d]thiazol-4-yloxy)-N-(1-(pyrimidin-2-yl)azetidin-3-yl)azetidine-1-carboxamide] | 10 to 79.4 nM
Cc1ccc(N2CC(NC(=O)[C@H]3C[C@H](Oc4cc(F)cc5scnc45)C3)C2)[n+]([O-])c1 [Example 111, 2-(3-((trans)-3-((6-Fluorobenzo[d]thiazol-4-yl)oxy)cyclobutanecarboxamido)azetidin-1-yl)-5-methylpyridine 1-oxide] | 100 to 1000 nM
Cc1ccc(N2CC(NC(=O)N3CC(Oc4cccc5scnc45)C3)C2)nc1 [Example 244] | 10 to 79.4 nM
O=C(N[C@H]1CC[C@H](N[C@@H](CO)C(F)(F)F)CC1)[C@H]1C[C@H](Oc2cc(F)ccc2OC(F)F)C1 [Example 20, (trans)-3-(2-(Difluoromethoxy)-5-fluorophenoxy)-N-((trans)-4-(((S)-1,1,1-trifluoro-3-hydroxypropan-2-yl)amino)cyclohexyl)cyclobutanecarboxamide] | 10 to 79.4 nM
CC(C)(C)c1nnc(NC(=O)N2CC(Oc3cccc4scnc34)C2)s1 [Example 332] | < 10 nM
CC(C)(O)c1cnc(N2CC(NC(=O)[C@H]3C[C@H](Oc4cccc5scnc45)C3)C2)o1 [Example 49, (trans)-3-(Benzo[d]thiazol-4-yloxy)-N-(1-(5-(2-hydroxypropan-2-yl)oxazol-2-yl)azetidin-3-yl)cyclobutanecarboxamide] | 10 to 79.4 nM
O=C(O)c1csc(NC(=O)[C@H]2C[C@H](Oc3cccc4cccnc34)C2)n1 [Example 193, 2-((trans)-3-(Quinolin-8-yloxy)cyclobutanecarboxamido)thiazole-4-carboxylic acid] | 10 to 79.4 nM
O=C(NC1CCCOC1)N1CC(Oc2cccc3scnc23)C1 (racemic) [Example 90, Racemic 3-(Benzo[d]thiazol-4-yloxy)-N-(tetrahydro-2H-pyran-3-yl)azetidine-1-carboxamide] | 100 to 1000 nM
CC(N[C@H]1CC[C@H](NC(=O)[C@H]2C[C@H](Oc3cccc4scnc34)C2)CC1)C(F)F (mixture of isomers) [Example 46, Racemic (trans)-3-(Benzo[d]thiazol-4-yloxy)-N-((trans)-4-((1,1-difluoropropan-2-yl)amino)cyclohexyl)cyclobutanecarboxamide] | 10 to 79.4 nM
